In patent US20140155361A1, “METHOD FOR TREATING LUNG DISEASE” (Duke University, priority 2010, published 2014):

What was measured:
[1] = tested on: NQO1 deficient and C57BL/6 mice; experiment: elastase (PPE) model of emphysema with oral NAC; assay type: in vivo, mouse
Excerpt: (§1) C57BL/6J mice were purchased from Jackson Laboratories (Bar Harbor, Me.) to be used as controls. A breeding colony was established at Duke University from breeding pairs of NQO1 deficient mice (backcrossed 16 generations on a C57BL/6 background) that were generously provided by Dr. Frank Gonzalez at the National Cancer Institute (Bethesda, Md.) (Radjendirane et al. J. Biol. Chem. 1998; 273:7382-7389). Male C57BL/6 or NQO1 deficient mice were used at one, two, four and six months of age. Experimental protocols were approved by the Institutional Animal Care and Use Committee at Duke University Medical Center and were performed in accordance with the standards established by the U.S. Animal Welfare Act.
At two months of age, WT and NQO1 deficient mice were treated with porcine pancreatic elastase (PPE, Sigma Aldrich, St. Louis Mo.) or saline by oropharyngeal aspiration. Briefly, immediately after inhalational anesthesia with 3% isoflurane (IsoFlo from Abbott Laboratories and Open-Circuit Gas Anesthesia System from Stoelting), animals were suspended by their upper incisors on a 60° incline board, and a liquid volume of PPE [25 μg/50 μL saline] or saline alone was delivered by oropharyngeal aspiration. Thirteen days post, the mice were phenotyped by flexiVent for pulmonary mechanics and lavage to collect bronchoalveolar lavage fluid (Foster et al. J Appl Physiol 2001; 90:1111-1117).
(§2) N-acetyl cysteine (Sigma Aldrich, St. Louis Mo.) was dissolved in the mouse water at a concentration of 2 mg/mL (March et al. Toxicol. Sci. 2006; 92:545-559). The water was changed every two days to prevent oxidation of the NAC. Mice were given NAC in their water for one week before LPS/Saline or PPE/Saline treatment and remained on the NAC water until phenotyping.
(§3) For the mice that underwent pulmonary function tests, the procedure required approximately five minutes per mouse from the point at which the mouse was administered anesthetic and prepared for surgery until the conclusion of pulmonary function measurements and euthanasia. Mice were anesthetized (60 mg/kg Nembutal) and surgically prepared with a tracheal cannula and then placed on a computer-controlled ventilator (flexiVent, SCIREQ, Montreal, Canada) at a constant tidal volume of 7.5 mL/kg and a […] of 3 cm H2O. The animals were then given a neuromuscular blockade (0.8 mg/kg Pancuronium Bromide, Sigma-Aldrich) and given three minutes to adjust to the ventilator. Pressure-volume curves were generated by slow stepwise (ramp) inflation to total lung capacity and deflation back to […] residual capacity (Lovgren et al. Am. J. Physiol. 2006; 291:L144-156). The static compliance measurements were calculated from the pressure volume curves ([…]).
(§4) Alveolar surface density (ASD) was calculated as previously described (Auten et al. Am. J. Physiol. 2001; 281:L336-344). Briefly, ten digital images of parenchymal architecture from each mouse were captured at 40× magnification were chosen (omitting large vascular and bronchiolar structures) from 5 μm thick sections of paraffin embedded, formalin-fixed mouse lung that were stained with hematoxylin and eosin (H&E stain, AML Laboratories, Rosedale, Md.). Five random fields were chosen (omitting large vascular and bronchiolar structures) and images were overlaid with an 11°-11 point grid (Metamorph; Universal Imaging, West Chester, Pa.) for point (P) and intercept (I) counting of the alveolar septa. Alveolar volume density was calculated from Palveoli/Pparenchyma and alveolar surface density from 2Ialveoli/LT, where LT was the test line length within the lung parenchyma.

[2] = tested on: NQO1 deficient and C57BL/6 mice; experiment: LPS-induced murine emphysema with oral NAC; assay type: in vivo, mouse
Excerpt: as §1
LPS (Sigma Aldrich, St Louis Mo.) was reconstituted with sterile saline and added for a dose of 5 μg/m^3. At one month of age, mice were placed in stainless steel wire cage exposure racks in a 20-L plexiglass chamber and exposed to aerosolized LPS for 2.5 hours. LPS solution was aerosolized with a 6-jet atomizer (TSI) with all output directed to the exposure chamber. Filtered air was supplied to the atomizer at 30-psi gauge pressure (Brass et al. Am. J. Resp. Cell. Mol. 2008; 39:584-590). Mice were then returned to their cages. The mice were exposed every other day for a total of three exposures and then given four weeks to recover.
as §2, §3
as §4, with “Five random fields were chosen (omitting large vascular and bronchiolar structures) and images were overlaid with an 11°-11 point grid (Metamorph; Universal Imaging, West Chester, Pa.) for point (P) and intercept (I) counting of the alveolar septa.” left out, “parenchyma. […]” for “parenchyma.”

[3] = tested on: mouse alveolar macrophage cell line (MHS cells); experiment: oxidative stress in macrophage cell line after NQO1 inhibitor or inducer pretreatment and LPS or PMA challenge; assay type: cell-based; conditions: pretreated 4 hours (100 nM MAC220 or 5-10 μM β-lapachone), then PMA or LPS 2 hours, supernatant
Procedure: Murine alveolar macrophage cell line (MH-S cell) purchased from ATCC (Manassas, Va.) was used for in vitro NQO1 blocking and inducing assays. Cells were cultured in RPMI1640 medium supplemented with 10% heat-inactivated fetal bovine serum, 2 mM L-glutamine, penicillin (100 U/ml), streptomycin (100 μg/ml), and 10 mM HEPES. To determine the role of NQO1 in macrophage response to LPS or PMA, cells at 80-90% confluence were pretreated with 10 μM of dicumerol for 1 hour, 100 nM of MAC220 or 5-10 μM of β-lapachone for 4 hours, and then were challenged by 20 ng/ml of LPS or 1 μM of PMA. Cell culture supernatants were collected after 2 hour incubation. Same volume of DMSO and PBS were used as vehicle control.

human cancer cell lines = conditions: single agent, read-out: antineoplastic activity (IC50); cited from earlier work
[4] = biological target: T1, human DNA Topoisomerase I (Homo sapiens, UniProt P11387); conditions: cited from earlier work
T1 sequence (P11387 1-765): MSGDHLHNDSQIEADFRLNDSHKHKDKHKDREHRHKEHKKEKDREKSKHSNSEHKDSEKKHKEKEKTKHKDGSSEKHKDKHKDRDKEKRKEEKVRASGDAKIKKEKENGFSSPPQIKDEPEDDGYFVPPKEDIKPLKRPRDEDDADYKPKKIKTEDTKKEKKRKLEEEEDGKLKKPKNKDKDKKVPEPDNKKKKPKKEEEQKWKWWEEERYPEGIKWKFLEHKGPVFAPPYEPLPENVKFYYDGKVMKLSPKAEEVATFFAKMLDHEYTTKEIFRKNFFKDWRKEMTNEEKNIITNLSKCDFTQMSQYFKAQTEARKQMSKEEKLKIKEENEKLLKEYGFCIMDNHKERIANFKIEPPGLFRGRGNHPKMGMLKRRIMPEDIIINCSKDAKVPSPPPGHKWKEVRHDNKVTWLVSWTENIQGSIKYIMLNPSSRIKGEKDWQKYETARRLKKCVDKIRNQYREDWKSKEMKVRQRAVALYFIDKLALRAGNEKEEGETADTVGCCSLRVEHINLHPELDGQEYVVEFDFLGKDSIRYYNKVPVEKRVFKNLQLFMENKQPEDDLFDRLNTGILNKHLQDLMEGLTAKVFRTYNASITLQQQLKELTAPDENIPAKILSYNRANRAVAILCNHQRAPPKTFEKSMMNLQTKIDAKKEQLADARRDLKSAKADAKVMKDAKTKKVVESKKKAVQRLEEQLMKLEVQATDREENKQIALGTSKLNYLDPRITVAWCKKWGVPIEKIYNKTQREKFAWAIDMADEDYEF

[5] = tested on: human DNA Topoisomerase II; conditions: cited from earlier work
[6] = BALF, NQO1 and WT mice given NAC prior to elastase challenge
[7] = NQO1 deficient mice, oral NAC in water + elastase vs elastase only
[8] = LPS treated NQO1 deficient mice compared to LPS+NAC NQO1 deficient mice

## CC(=O)N[C@@H](CS)C(=O)O [NAC, N-acetyl cysteine]
[1]; [6]
  8-isoprostane levels: reduction
  protein carbonyls: reduction
[1]; NQO1 deficient mice treated with NAC, elastase model
  Glutathione measurements in the BAL: increased concentrations
[1]; [7]
  lung compliance: partially attenuated
  pressure-volume measurements: partially attenuated
[1]; PPE only group compared to the PPE+NAC group, NQO1 deficient and C57BL/6 mice
  neutrophils in BALF: significant increase
[1]; PPE+NAC vs PPE groups
  mean line intercepts: complete abrogation of the elastase effect
  surface alveolar density: complete abrogation of the elastase effect
[2]; [8]
  8-isoprostane concentrations in the BALF: significant increase
  protein carbonyls in the BALF: significant increase
[2]; LPS+NAC treated NQO1 deficient mice (LPS only: 5-9%)
  polymorphonuclear leukocytes, share of BALF cells: 1-4%
[2]; NQO1 deficient mice treated with NAC, LPS model
  Glutathione measurements in the BAL: increased concentrations
[2]; NQO1 deficient mice, LPS + NAC vs LPS
  static compliance: attenuated

## CC1(C)CCC2=C(O1)c1ccccc1C(=O)C2=O [β-lapachone, 3,4-dihydro-2,2-dimethyl-2H-naphtho[1,2-b]pyran-5,6-dione]
[3]
  oxidative stress level: dose response decrease
Human cancer cell lines
  IC50: 1 to 10 µM
[4]
  in vitro inhibition of human DNA Topoisomerase I: potent in vitro inhibition
[5]
  in vitro inhibition of human DNA Topoisomerase II: potent in vitro inhibition
